Experimental data from patent publication US11850280B1 (priority 2020, dated 2023).

Conditions: in vivo

In the case of Ivermectin, the “blood plasma levels versus dosage” value was “dose-response relationship”.
